We go through two molecules from patent publication US20130123618A1, “Imaging Agents” (priority 2008, published 2013).

What all share (assay type): cell-based
One assay relates to 9L Rat gliosarcoma cells. As to the kind of experiment: in vitro amino acid uptake in 9L cells. The source says:
(§1) Compounds have been evaluated in vitro for tumor binding specificity (i.e. uptake cells) using a variety of tumor cell lines available in the art, along with reference compounds such as Me-AlB and BCH. Detailed description of these assays can be found in Martarello et al. (2002) Journal of Medicinal Chemistry, 45:2250-2259 and McConathy et al. (2003) Nuclear Medicine and Biology, 30:477-490. These so called “amino acid uptake studies” are typically carried out with radiolabeled compounds in at least five phenotypically different human tumor cell lines (e.g., A549 lung carcinoma, MB468 breast carcinoma, DU145 prostate carcinoma-androgen independent, LnCap-androgen dependent, SKOV3 ovarian carcinoma, U87 glial blastoma, MIA PaCa-2 pancreas carcinoma, MDA MB231 breast carcinoma). These tumor cell lines can be grown either in vitro or in vivo with severe combined immunodeficiency (SCID) mice as a host. The afore-mentioned tumor cell lines are available at the Winship Cancer Institute of Emory University.
(§2) For the in vitro amino acid uptake studies, all cells can be grown to monolayer confluency in T-175 culture flasks [Corning, Corning, N.Y.] (approx. 1×10^8 cells/flask) in Dulbecco's Modified Eagle's Medium (DMEM) [Sigma, St. Louis, Mo.] in a humidified incubator (37° C., 5% CO2/95% air). […]
(§3) In the in vitro studies the uptake rate of each amino acid compound is measured in each tumor line, as well as the dominant transport mechanisms of each tumor cell line. After trypsinization, cells are resuspended in serum-free media, then counted on a hemocytometer, with viability assessed through Trypan blue staining. […] The vials are placed in a Cobra-II gamma counter (Packard, Meriden, Conn.), with the activity per cell number determined. […] Saline washes are performed as described above, and the filtered cells' radioactivity determined on the gamma counter. […]
(§4) The uptake of all compounds were measured in human and rat cancer cell lines and the dominant transport (“A” and “L”) mechanism of each culture were determined. […]

The subject of assay [1] is MIA PaCa-2 Human Pancreas carcinoma cells. As to the kind of experiment: in vitro amino acid uptake in MIA PaCa-2 cells. The protocol: (§5) Compounds have been evaluated in vitro for tumor binding specificity (i.e. uptake cells) using a variety of tumor cell lines available in the art, along with reference compounds such as Me-AlB and BCH. Detailed description of these assays can be found in Martarello et al. (2002) Journal of Medicinal Chemistry, 45:2250-2259 and McConathy et al. (2003) Nuclear Medicine and Biology, 30:477-490. […]
as §3, §4

Assay [2] relates to MDA MB231 Human Breast carcinoma cells. As to the kind of experiment: in vitro amino acid uptake in MDA MB231 cells. As to the method:
as §5, §3, §4

The test system of assay [3] is MDA MB468 Human Breast carcinoma cells. As to the kind of experiment: in vitro amino acid uptake in MDA MB468 cells.
Excerpt: as §1, §2, §3, §4

Assay [4] relates to LnCap Human Prostate carcinoma cells. As to the kind of experiment: in vitro amino acid uptake in LnCap cells. As to the method: as §5, §3, §4

The structures appear in SMILES notation.

In the case of `N[C@]1(C(=O)O)CCC[C@@H]1[18F]` (single isomer, unassigned; enantiomer 1) [Enantiomer 1, anti-2-[^18F]FACPC], the “% Dose uptake per 0.5 × 10−6 Cells” value with 9L Rat gliosarcoma cells came to 12 % Dose/0.5 × 10^−6; in assay [1], 6.8 % Dose/0.5 × 10^−6; in assay [2], 9.1 % Dose/0.5 × 10^−6; in assay [3] it was 15 % Dose/0.5 × 10^−6; in assay [4], 6.5 % Dose/0.5 × 10^−6.

Regarding `NC1(C(=O)O)CCC1[18F]` (racemic) [racemic anti-2-[^18F]FACBC], the “% Dose uptake per 0.5 × 10−6 Cells” value in the assay with 9L Rat gliosarcoma cells is listed as 2.3 % Dose/0.5 × 10^−6; in assay [3] it was 7.4 % Dose/0.5 × 10^−6.
